Measurements: patent publication US8058242B2, “Chimeric proteins with natriuretic activity” (The University of Queensland, priority 2004, dated 2011)
Positions of bridges follow the written chain, without caps; N, C: chain ends. Residues, ends and D or L forms follow the SMILES beside them.

Tests used:
[1] = target: T1, NPR-A signaling in HeLa cells (Homo sapiens, UniProt P16066); assay: cGMP AlphaScreen assay in HeLa cells (Examples 14, 15); format: cell-based; settings: 30 minutes at 37° C.
T1 construct: Cyclic GMP (cGMP) elevation in HeLa cells in response to Natriuretic Peptide stimulation; endogenous in cells; host or cells: HeLa cells
T1 sequence (P16066 33-1061): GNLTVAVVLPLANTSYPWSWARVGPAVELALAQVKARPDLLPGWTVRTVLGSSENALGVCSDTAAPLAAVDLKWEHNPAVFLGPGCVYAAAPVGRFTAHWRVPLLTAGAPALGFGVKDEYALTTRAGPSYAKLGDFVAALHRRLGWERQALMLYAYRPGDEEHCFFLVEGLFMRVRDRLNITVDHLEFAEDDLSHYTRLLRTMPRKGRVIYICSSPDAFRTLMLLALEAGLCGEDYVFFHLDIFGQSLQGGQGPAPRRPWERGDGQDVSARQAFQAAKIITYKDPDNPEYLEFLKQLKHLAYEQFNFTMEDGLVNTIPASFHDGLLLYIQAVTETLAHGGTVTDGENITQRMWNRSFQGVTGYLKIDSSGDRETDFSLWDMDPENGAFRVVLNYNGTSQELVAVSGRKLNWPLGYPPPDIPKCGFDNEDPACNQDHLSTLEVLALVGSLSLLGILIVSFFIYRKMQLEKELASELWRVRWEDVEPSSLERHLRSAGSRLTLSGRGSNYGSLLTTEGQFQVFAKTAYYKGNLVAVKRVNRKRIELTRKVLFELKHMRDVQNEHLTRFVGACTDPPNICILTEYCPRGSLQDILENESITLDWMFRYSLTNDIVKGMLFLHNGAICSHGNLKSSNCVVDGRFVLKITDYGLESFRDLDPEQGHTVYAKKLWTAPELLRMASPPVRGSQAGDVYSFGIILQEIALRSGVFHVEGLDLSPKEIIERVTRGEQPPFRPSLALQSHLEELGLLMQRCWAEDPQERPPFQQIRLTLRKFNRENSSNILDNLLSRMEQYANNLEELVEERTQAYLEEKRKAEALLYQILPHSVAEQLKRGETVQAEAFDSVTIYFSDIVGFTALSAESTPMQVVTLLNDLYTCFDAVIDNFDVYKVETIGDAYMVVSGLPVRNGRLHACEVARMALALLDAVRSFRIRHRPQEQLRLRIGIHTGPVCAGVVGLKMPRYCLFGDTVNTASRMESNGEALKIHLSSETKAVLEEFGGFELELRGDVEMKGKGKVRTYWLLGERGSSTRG
Method: HeLa cells were maintained in RPMI cell culture medium (Gihco Invitrogen, Mt Waverley, Australia) supplemented with 10% Foetal Bovine Serum (Cambrex Bio Science, Rockland, USA). Upon reaching confluence, cells were sub-cultured such that they would be 70-90% confluent at time of assay.
Cyclic GMP (cGMP) elevation in HeLa cells in response to Natriuretic Peptide stimulation was performed using a cGMP AlphaScreen kit (PerkinElmer, Boston, USA), as follows for normal experiments: Cells were detached, pelleted to remove growth medium, and resuspended in Stimulation Buffer (Hank's Balanced Salt Solution, 0.1% Bovine Serum Albumin [BSA] (Sigma-Aldrich, Castle Hill, Australia), 1 mM 3-Isobutyl-1-methylxanthine [IBMX] (Sigma-Aldrich, Castle Hill, Australia)) and diluted to 6×10^6 cells per mL (30 000 cells per 5 μL). 5 μL of cells were added to wells of white 384-well OptiPlates (PerkinElmer, Boston, USA), and stimulated with increasing concentrations of peptide for 30 minutes at 37° C. Cells were then lysed with 10 μL Lysis buffer (dH2O, 0.3% Tween-20 (Sigma-Aldrich, Castle Hill, Australia), 5 mM HEPES (JRH Biosciences, Kansas, USA) and 0.1% BSA) and 5 μL acceptor bead mix (10 μL per mL acceptor beads and 1/3000 anti-cGMP antibody (BioVision, Mountain View, USA) in lysis buffer) added per well in the dark. Plates were incubated in the dark at room temperature for 30 minutes, then 5 μL donor bead mix (10 μL per ML donor beads and 0.3 nM biotinylated cGMP in lysis buffer) was added per well in the dark and the plate incubated overnight at room temperature. Signal was read using an EnVision plate reader (PerkinElmer, Boston, USA) and data analysed using Prism software. The cGMP standard curve was performed as per manufacturer's instructions.
To examine whether TNPc and synthetic analogs produced in the inventors' laboratory could stimulate NPR-A signaling, cGMP elevations in HeLa cells in response to these peptides were measured, as described above.

[2] = Stability assay in human plasma (Example 6); format: in vitro ADME; settings: 24 h at 37° C., read-out: peptide remaining in plasma
Method: Plasma preparation: Blood samples (from healthy human volunteers) were drawn into a sealed tube containing ethylene diamine tetra-acetic acid (EDTA). After sampling, the plasma was separated by centrifugation at 14,000 rpm for 30 min. Plasma was taken out and stored in separated Eppendorf tubes at −20° C.
Stability assay in human and rat plasma: Human or rat plasma (sample size 200 μL) was incubated at 37° C. for 5 min. 50 μL peptide stock solution (5 mg/mL) was added to the plasma. The vortexed reaction mixture was incubated at 37° C. Sample aliquots of 30 μL were taken from the reaction mixture at sequential intervals of 0 h, 1 h, 2 h, 4 h and 24 h and the sample reaction quenched immediately with 30 μL extraction buffer containing 50% Acetonitrile, 50% 0.1 M NaCl and 1% TFA. The quenched aliquots were cooled in ice for 5 min prior to centrifugation at 14,000 rpm for 15 min. 20 μl of the supernatant from each of the centrifuged aliquots was injected into RP-HPLC for analysis.

[3] = −Log10EC50 (pEC50) ± Standard Error, cGMP accumulation in HeLa cells

With CC[C@H](C)[C@@H]1NC(=O)[C@H](CCCCN)NC(=O)[C@H](Cc2c[nH]cn2)NC(=O)CNC(=O)[C@H](Cc2ccccc2)NC(=O)[C@@H](NC(=O)[C@@H]2CCCN2C(=O)[C@H](CC(=O)O)NC(=O)[C@H](Cc2ccc(O)cc2)NC(=O)[C@H](CCCCN)NC(=O)[C@@H](NC(=O)[C@@H](N)CCC(=O)O)C(C)C)CSSC[C@@H](C(=O)N2CCC[C@H]2C(=O)N[C@@H](CO)C(=O)N[C@@H](CC(C)C)C(=O)N[C@@H](CCCNC(=N)N)C(=O)N[C@@H](CC(=O)O)C(=O)N2CCC[C@H]2C(=O)N[C@@H](CCCNC(=N)N)C(=O)N2CCC[C@H]2C(=O)N[C@@H](CC(N)=O)C(=O)N[C@@H](C)C(=O)N2CCC[C@H]2C(=O)N[C@@H](CO)C(=O)N[C@H](C(=O)N[C@@H](CO)C(=O)N[C@@H](C)C(=O)O)[C@@H](C)O)NC(=O)CNC(=O)[C@H](CC(C)C)NC(=O)[C@H](CC(N)=O)NC(=O)[C@H](CO)NC(=O)[C@H](C(C)C)NC(=O)[C@H](Cc2c[nH]cn2)NC(=O)[C@H](CC(N)=O)NC(=O)[C@H]([C@@H](C)CC)NC(=O)[C@H](CCCNC(=N)N)NC(=O)[C@H](CC(=O)O)NC1=O [DNP, reference compound] (H-EVKYDPCFGHKIDRINHVSNLGCPSLRDPRPNAPSTSA-OH; disulfide 7-23; N-terminus and C-terminus assumed) the EC50 ([1]; EC50, cGMP accumulation in HeLa cells) was 0.392 nM and the EC50 [1, 3] was 0.382 nM.
CC[C@H](C)[C@H](NC(=O)[C@H](CCCCN)NC(=O)[C@H](CO)NC(=O)[C@H](CC(=O)O)NC(=O)[C@@H](N)CO)C(=O)NCC(=O)N[C@@H](CC(N)=O)C(=O)NCC(=O)N[C@H]1CSSC[C@@H](C(=O)N[C@@H](CC(N)=O)C(=O)N[C@@H](CCCNC(=N)N)C(=O)N[C@H](C(=O)N[C@@H](CCSC)C(=O)N[C@@H](CCC(N)=O)C(=O)N[C@@H](CC(N)=O)C(=O)N2CCC[C@H]2C(=O)N2CCC[C@H]2C(=O)N[C@@H](CCCCN)C(=O)N[C@@H](CCCCN)C(=O)N[C@@H](Cc2ccccc2)C(=O)N[C@@H](CO)C(=O)NCC(=O)N[C@@H](CCC(=O)O)C(=O)O)[C@@H](C)CC)NC(=O)CNC(=O)[C@H](CC(C)C)NC(=O)CNC(=O)[C@H](CO)NC(=O)[C@H](C(C)C)NC(=O)[C@H](CO)NC(=O)CNC(=O)[C@H]([C@@H](C)CC)NC(=O)[C@H](CCCNC(=N)N)NC(=O)[C@H](CC(=O)O)NC(=O)[C@H](CC(C)C)NC(=O)[C@@H]2CCCN2C(=O)[C@H](Cc2ccccc2)NC(=O)CNC(=O)[C@H](Cc2ccccc2)NC1=O [TNPc] (H-SDSKIGNGCFGFPLDRIGSVSGLGCNRIMQNPPKKFSGE-OH; disulfide 9-25) showed a remaining at 24 h, 1 mg/mL [2] of 72% and an EC50 [1, 3] of 124000 nM.
